PubChem BioAssay AID256 (DTP/NCI, 2004)
“And” between values parts separate entries of the source, which are not always exact repeats. Identical values can stand only once. Toxic doses and inconclusive results are not listed.

System: CD2F1 mice, L1210 leukemia ip, survival T/C
Assay: NCI In Vivo Anticancer Drug Screen. Data for tumor model L1210 Leukemia (intraperitoneal) in CD2F1 (CDF1) mice
Details: higher = longer survival
Summary of the method: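 Transplantable tumor in mice; compound-treated vs vehicle-treated groups. Read-out = treated/control ratio of the measured endpoint.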

[1] = endpoint: mean survival time, dose: 25.0 mg/kg/injection, schedule: Q01DX009 (ip), vehicle: other
[2] = endpoint: mean survival time, dose: 50.0 mg/kg/injection, schedule: Q01DX009 (ip), vehicle: other

## O=C1N[C@@H]([C@H]2CC[C@H](Cl)CN2)C(=O)N[C@H]1[C@H]1CC[C@H](Cl)CN1
endpoint: mean survival time, dose: 0.25 mg/kg/injection, schedule: Q01DX009 (iv), vehicle: saline
  T/C: 100 % of control
endpoint: mean survival time, dose: 0.25 mg/kg/injection, schedule: Q03HX016 (ip), vehicle: saline
  T/C: 115 % of control
endpoint: mean survival time, dose: 0.5 mg/kg/injection, schedule: Q01DX009 (iv), vehicle: saline
  T/C: 112 % of control
endpoint: mean survival time, dose: 0.5 mg/kg/injection, schedule: Q01DX009 (oral), vehicle: saline
  T/C: 108 % of control
endpoint: mean survival time, dose: 0.5 mg/kg/injection, schedule: Q03HX016 (ip), vehicle: saline
  T/C: 151 % of control
endpoint: mean survival time, dose: 0.5 mg/kg/injection, schedule: Q03HX024 (ip), vehicle: saline
  T/C: 196 % of control
endpoint: mean survival time, dose: 1.0 mg/kg/injection, schedule: Q01DX001 (iv), vehicle: saline
  T/C: 108 % of control
endpoint: mean survival time, dose: 1.0 mg/kg/injection, schedule: Q01DX009 (ip), vehicle: saline
  T/C: 167 % of control
endpoint: mean survival time, dose: 1.0 mg/kg/injection, schedule: Q01DX009 (oral), vehicle: saline
  T/C: 160 % of control
endpoint: mean survival time, dose: 1.0 mg/kg/injection, schedule: Q03HX008 (ip), vehicle: saline
  T/C: 305 % of control
endpoint: mean survival time, dose: 1.0 mg/kg/injection, schedule: Q03HX016 (ip), vehicle: saline
  T/C: 252 % of control
endpoint: mean survival time, dose: 1.0 mg/kg/injection, schedule: Q03HX024 (ip), vehicle: saline
  T/C: 300 % of control
endpoint: mean survival time, dose: 1.0 mg/kg/injection, schedule: Q04DX003 (oral), vehicle: saline
  T/C: 116 % of control
endpoint: mean survival time, dose: 1.0 mg/kg/injection, schedule: Q08DX002 (ip), vehicle: saline
  T/C: 120 % of control
endpoint: mean survival time, dose: 2.0 mg/kg/injection, schedule: Q01DX001 (iv), vehicle: saline
  T/C: 109 % of control
endpoint: mean survival time, dose: 2.0 mg/kg/injection, schedule: Q01DX001 (oral), vehicle: saline
  T/C: 111 % of control
endpoint: mean survival time, dose: 2.0 mg/kg/injection, schedule: Q01DX001 (sc), vehicle: saline
  T/C: 123 % of control
endpoint: mean survival time, dose: 2.0 mg/kg/injection, schedule: Q01DX009 (ip), vehicle: saline
  T/C: 223 % of control
endpoint: mean survival time, dose: 2.0 mg/kg/injection, schedule: Q01DX009 (iv), vehicle: saline
  T/C: 160 % of control
endpoint: mean survival time, dose: 2.0 mg/kg/injection, schedule: Q01DX009 (oral), vehicle: saline
  T/C: 158 % of control
endpoint: mean survival time, dose: 2.0 mg/kg/injection, schedule: Q03HX008 (ip), vehicle: saline
  T/C: 354 % of control
endpoint: mean survival time, dose: 2.0 mg/kg/injection, schedule: Q03HX016 (ip), vehicle: saline
  T/C: 95 % of control
endpoint: mean survival time, dose: 2.0 mg/kg/injection, schedule: Q03HX024 (ip), vehicle: saline
  T/C: 93 % of control
endpoint: mean survival time, dose: 2.0 mg/kg/injection, schedule: Q04DX003 (ip), vehicle: saline
  T/C: 171 % of control
endpoint: mean survival time, dose: 2.0 mg/kg/injection, schedule: Q04DX003 (oral), vehicle: saline
  T/C: 119 % of control
endpoint: mean survival time, dose: 2.0 mg/kg/injection, schedule: Q08DX002 (oral), vehicle: saline
  T/C: 117 % of control
endpoint: mean survival time, dose: 2.5 mg/kg/injection, schedule: Q01DX001 (ip), vehicle: water
  T/C: 155 % of control
endpoint: mean survival time, dose: 4.0 mg/kg/injection, schedule: Q01DX001 (ip), vehicle: saline
  T/C: 157 % of control
endpoint: mean survival time, dose: 4.0 mg/kg/injection, schedule: Q01DX001 (oral), vehicle: saline
  T/C: 124 % of control
endpoint: mean survival time, dose: 4.0 mg/kg/injection, schedule: Q01DX009 (ip), vehicle: saline
  T/C: 107 % of control
endpoint: mean survival time, dose: 4.0 mg/kg/injection, schedule: Q01DX009 (iv), vehicle: saline
  T/C: 157 % of control
endpoint: mean survival time, dose: 4.0 mg/kg/injection, schedule: Q01DX009 (oral), vehicle: saline
  T/C: 86 % of control
endpoint: mean survival time, dose: 4.0 mg/kg/injection, schedule: Q04DX003 (ip), vehicle: saline
  T/C: 188 % of control and 221 % of control
endpoint: mean survival time, dose: 4.0 mg/kg/injection, schedule: Q04DX003 (oral), vehicle: saline
  T/C: 156 % of control
endpoint: mean survival time, dose: 4.0 mg/kg/injection, schedule: Q08DX002 (ip), vehicle: saline
  T/C: 179 % of control
endpoint: mean survival time, dose: 5.0 mg/kg/injection, schedule: Q01DX001 (ip), vehicle: water
  T/C: 241 % of control and 269 % of control
endpoint: mean survival time, dose: 6.0 mg/kg/injection, schedule: Q01DX001 (ip), vehicle: saline
  T/C: 261 % of control
endpoint: mean survival time, dose: 6.7 mg/kg/injection, schedule: Q01DX001 (ip), vehicle: saline
  T/C: 188 % of control
endpoint: mean survival time, dose: 8.0 mg/kg/injection, schedule: Q01DX001 (ip), vehicle: saline
  T/C: 286 % of control and 501 % of control
endpoint: mean survival time, dose: 8.0 mg/kg/injection, schedule: Q01DX001 (iv), vehicle: saline
  T/C: 157 % of control
endpoint: mean survival time, dose: 8.0 mg/kg/injection, schedule: Q01DX001 (oral), vehicle: saline
  T/C: 154 % of control and 175 % of control
endpoint: mean survival time, dose: 8.0 mg/kg/injection, schedule: Q01DX001 (sc), vehicle: saline
  T/C: 162 % of control
endpoint: mean survival time, dose: 8.0 mg/kg/injection, schedule: Q04DX003 (ip), vehicle: saline
  T/C: 246 % of control
endpoint: mean survival time, dose: 8.0 mg/kg/injection, schedule: Q04DX003 (oral), vehicle: saline
  T/C: 164 % of control
endpoint: mean survival time, dose: 8.0 mg/kg/injection, schedule: Q08DX002 (ip), vehicle: saline
  T/C: 415 % of control
endpoint: mean survival time, dose: 8.0 mg/kg/injection, schedule: Q08DX002 (oral), vehicle: saline
  T/C: 155 % of control
endpoint: mean survival time, dose: 10.0 mg/kg/injection, schedule: Q01DX001 (ip), vehicle: water
  T/C: 296 % of control and 349 % of control
endpoint: mean survival time, dose: 16.0 mg/kg/injection, schedule: Q01DX001 (iv), vehicle: saline
  T/C: 212 % of control
endpoint: mean survival time, dose: 16.0 mg/kg/injection, schedule: Q01DX001 (oral), vehicle: saline
  T/C: 100 % of control
endpoint: mean survival time, dose: 16.0 mg/kg/injection, schedule: Q01DX001 (sc), vehicle: saline
  T/C: 94 % of control
endpoint: mean survival time, dose: 16.0 mg/kg/injection, schedule: Q04DX003 (ip), vehicle: saline
  T/C: 94 % of control and 95 % of control
endpoint: mean survival time, dose: 16.0 mg/kg/injection, schedule: Q04DX003 (oral), vehicle: saline
  T/C: 90 % of control
endpoint: mean survival time, dose: 16.0 mg/kg/injection, schedule: Q08DX002 (ip), vehicle: saline
  T/C: 100 % of control
endpoint: mean survival time, dose: 16.0 mg/kg/injection, schedule: Q08DX002 (oral), vehicle: saline
  T/C: 90 % of control

## CCSC(CC(O)C(O)C(O)CO)n1cnc2c(Cl)ncnc21 (configuration not stated)
endpoint: mean survival time, dose: 12.5 mg/kg/injection, schedule: Q01DX005 (ip), vehicle: water
  T/C: 100 % of control
endpoint: mean survival time, dose: 25.0 mg/kg/injection, schedule: Q01DX005 (ip), vehicle: water
  T/C: 105 % of control
endpoint: mean survival time, dose: 50.0 mg/kg/injection, schedule: Q01DX005 (ip), vehicle: water
  T/C: 102 % of control
endpoint: mean survival time, dose: 100.0 mg/kg/injection, schedule: Q01DX005 (ip), vehicle: water
  T/C: 107 % of control
endpoint: mean survival time, dose: 200.0 mg/kg/injection, schedule: Q01DX005 (ip), vehicle: water
  T/C: 104 % of control

## Nc1ccc(NC(=S)Nc2ccc(N)cc2)cc1
endpoint: mean survival time, dose: 25.0 mg/kg/injection, schedule: Q04DX003 (ip), vehicle: Klucel (hydroxypropylcellulose) (HPC)
  T/C: 104 % of control
endpoint: mean survival time, dose: 50.0 mg/kg/injection, schedule: Q04DX003 (ip), vehicle: Klucel (hydroxypropylcellulose) (HPC)
  T/C: 106 % of control
endpoint: mean survival time, dose: 100.0 mg/kg/injection, schedule: Q04DX003 (ip), vehicle: Klucel (hydroxypropylcellulose) (HPC)
  T/C: 98 % of control

## COc1nc(Cl)nc(Cl)c1Cl (tested in a mixture with another compound)
endpoint: mean survival time, dose: 12.5 mg/kg/injection, schedule: Q01DX009 (ip), vehicle: other
  T/C: 93 % of control
[1]
  T/C: 93 % of control
[2]
  T/C: 104 % of control

## ClC(Cl)(Cl)c1nc2nccnc2[nH]1
endpoint: mean survival time, dose: 25.0 mg/kg/injection, schedule: Q01DX009 (ip), vehicle: saline sonified
  T/C: 100 % of control
endpoint: mean survival time, dose: 50.0 mg/kg/injection, schedule: Q01DX009 (ip), vehicle: saline sonified
  T/C: 104 % of control
endpoint: mean survival time, dose: 100.0 mg/kg/injection, schedule: Q01DX009 (ip), vehicle: saline sonified
  T/C: 94 % of control

## CC1CCC2(OC1)OC1CC3C4CCC5(C)CC(=O)CCC5(C)C4CCC3(C)C1C2C (configuration not stated)
endpoint: mean survival time, dose: 100.0 mg/kg/injection, schedule: Q04DX002 (ip), vehicle: saline with Tween-80
  T/C: 90 % of control
endpoint: mean survival time, dose: 200.0 mg/kg/injection, schedule: Q04DX002 (ip), vehicle: saline with Tween-80
  T/C: 86 % of control

## O=[N+]([O-])c1cccc(C2=NNC(c3cccc([N+](=O)[O-])c3)=NN2)c1
endpoint: median survival time, dose: 50.0 mg/kg/injection, schedule: Q01DX001 (ip), vehicle: saline with Tween-80
  T/C: 88 % of control
endpoint: median survival time, dose: 100.0 mg/kg/injection, schedule: Q01DX001 (ip), vehicle: saline with Tween-80
  T/C: 92 % of control
endpoint: median survival time, dose: 200.0 mg/kg/injection, schedule: Q01DX001 (ip), vehicle: saline with Tween-80
  T/C: 94 % of control
endpoint: median survival time, dose: 400.0 mg/kg/injection, schedule: Q01DX001 (ip), vehicle: saline with Tween-80
  T/C: 95 % of control
endpoint: median survival time, dose: 800.0 mg/kg/injection, schedule: Q01DX001 (ip), vehicle: saline with Tween-80
  T/C: 98 % of control

## CN(Cc1ccc([N+](=O)[O-])cc1)N=Nc1ccc(C(=O)O)cc1
[1]
  T/C: 94 % of control
[2]
  T/C: 97 % of control
endpoint: mean survival time, dose: 100.0 mg/kg/injection, schedule: Q01DX009 (ip), vehicle: other
  T/C: 86 % of control
endpoint: mean survival time, dose: 200.0 mg/kg/injection, schedule: Q01DX009 (ip), vehicle: other
  T/C: 94 % of control

## CC(C)(CCC(C)(C)c1ccccc1)c1ccccc1
endpoint: mean survival time, dose: 50.0 mg/kg/injection, schedule: Q01DX009 (ip), vehicle: saline with Tween-80
  T/C: 96 % of control
endpoint: mean survival time, dose: 100.0 mg/kg/injection, schedule: Q01DX009 (ip), vehicle: saline with Tween-80
  T/C: 96 % of control
endpoint: mean survival time, dose: 200.0 mg/kg/injection, schedule: Q01DX009 (ip), vehicle: saline with Tween-80
  T/C: 96 % of control
